# Calls of active or inactive are those of the source. The calls are words filed in the database; no cut-off is given here.
# How the values were obtained:
# [1] = Cytotoxicity against human MHCC97L cells assessed as growth inhibition after 24 hrs by MTT assay; assay type: functional, cell-based
# PLC-PRF-5 [2] = assay: Cytotoxicity against human PLC/PRF/5 cells assessed as growth inhibition after 24 hrs by MTT assay; assay type: functional, cell-based; settings: PLC-PRF-5, 24 h
# [3] = Potency index, ratio of sorafenib IC50 to test compound IC50 for human MHCC97L cells; assay type: functional
# PLC-PRF-5 [4] = assay: Potency index, ratio of sorafenib IC50 to test compound IC50 for human PLC/PRF/5 cells; assay type: functional
# [5] = Potency index, ratio of tetrandrine IC50 to test compound IC50 for human MHCC97L cells; assay type: functional
# PLC-PRF-5 [6] = assay: Potency index, ratio of tetrandrine IC50 to test compound IC50 for human PLC/PRF/5 cells; assay type: functional
# PLC-PRF-5 [7] = assay: Cell cycle arrest in human PLC/PRF/5 cells assessed as accumulation at G0/G1 phase at 1.25 to 2.5 uM after 24 hrs by propidium iodide staining-based flow cytometric method (reference value: 69.17%); assay type: functional
# PLC-PRF-5 [8] = assay: Cell cycle arrest in human PLC/PRF/5 cells assessed as accumulation at S phase at 1.25 to 2.5 uM after 24 hrs by propidium iodide staining-based flow cytometric method (reference value: 20.73%); assay type: functional
# PLC-PRF-5 [9] = assay: Cell cycle arrest in human PLC/PRF/5 cells assessed as accumulation at G2/M phase at 1.25 to 2.5 uM after 24 hrs by propidium iodide staining-based flow cytometric method (reference value: 18.18%); assay type: functional
# [10] = Cell cycle arrest in human MHCC97L cells assessed as accumulation at G0/G1 phase at 1.25 to 2.5 uM after 24 hrs by propidium iodide staining-based flow cytometric method (reference value: 65.24%); assay type: functional
# [11] = Cell cycle arrest in human MHCC97L cells assessed as accumulation at S phase at 1.25 to 2.5 uM after 24 hrs by propidium iodide staining-based flow cytometric method (reference value: 18.41%); assay type: functional
# [12] = Cell cycle arrest in human MHCC97L cells assessed as accumulation at G2/M phase at 1.25 to 2.5 uM after 24 hrs by propidium iodide staining-based flow cytometric method (reference value: 20.60%); assay type: functional
# PLC-PRF-5 [13] = assay: Induction of apoptosis in human PLC/PRF/5 cells assessed as early apoptotic cells at 1.25 to 2.5 uM after 24 hrs by annexin V/7-AAD staining-based flow cytometric method (reference value: 0.467%); assay type: functional
# PLC-PRF-5 [14] = assay: Induction of apoptosis in human PLC/PRF/5 cells assessed as late apoptotic cells at 1.25 to 2.5 uM after 24 hrs by annexin V/7-AAD staining-based flow cytometric method (reference value: 2.66%); assay type: functional
# PLC-PRF-5 [15] = assay: Induction of apoptosis in human PLC/PRF/5 cells assessed as necrotic cells at 1.25 to 2.5 uM after 24 hrs by annexin V/7-AAD staining-based flow cytometric method (reference value: 1.87%); assay type: functional
# PLC-PRF-5 [16] = assay: Induction of apoptosis in human PLC/PRF/5 cells assessed as viable cells at 1.25 to 2.5 uM after 24 hrs by annexin V/7-AAD staining-based flow cytometric method (reference value: 95%); assay type: functional
# [17] = Induction of apoptosis in human MHCC97L cells assessed as early apoptotic cells at 1.25 to 2.5 uM after 24 hrs by annexin V/7-AAD staining-based flow cytometric method (reference value: 0.601%); assay type: functional
# [18] = Induction of apoptosis in human MHCC97L cells assessed as late apoptotic cells at 1.25 to 2.5 uM after 24 hrs by annexin V/7-AAD staining-based flow cytometric method (reference value: 3.66%); assay type: functional
# [19] = Induction of apoptosis in human MHCC97L cells assessed as necrotic cells at 1.25 to 2.5 uM after 24 hrs by annexin V/7-AAD staining-based flow cytometric method (reference value: 3.44%); assay type: functional
# [20] = Induction of apoptosis in human MHCC97L cells assessed as viable cells at 1.25 to 2.5 uM after 24 hrs by annexin V/7-AAD staining-based flow cytometric method (reference value: 93.4%); assay type: functional
# PLC-PRF-5 [21] = assay: Cytotoxicity against human PLC/PRF/5 cells assessed as decrease in cell viability at 1.25 to 2.5 uM after 24 hrs in presence of caspase inhibitor Z-vad-fmk by MTT assay; assay type: functional, cell-based
# MHCC97L [22] = assay: Cytotoxicity against human MHCC97L cells assessed as decrease in cell viability at 1.25 to 2.5 uM after 24 hrs in presence of caspase inhibitor Z-vad-fmk by MTT assay; assay type: functional, cell-based
# PLC-PRF-5 [23] = assay: Cytotoxicity against human PLC/PRF/5 cells assessed as decrease in cell viability at 1.25 to 2.5 uM after 24 hrs in presence of autophagy inhibitor bafilomycin A1 by MTT assay; assay type: functional, cell-based
# MHCC97L [24] = assay: Cytotoxicity against human MHCC97L cells assessed as decrease in cell viability at 1.25 to 2.5 uM after 24 hrs in presence of autophagy inhibitor bafilomycin A1 by MTT assay; assay type: functional, cell-based
# PLC-PRF-5 [25] = assay: Cytotoxicity against human PLC/PRF/5 cells assessed as decrease in cell viability at 1.25 to 2.5 uM after 24 hrs in presence of necrosis inhibitor necrostatin-1 by MTT assay; assay type: functional, cell-based
# MHCC97L [26] = assay: Cytotoxicity against human MHCC97L cells assessed as decrease in cell viability at 1.25 to 2.5 uM after 24 hrs in presence of necrosis inhibitor necrostatin-1 by MTT assay; assay type: functional, cell-based
# PLC-PRF-5 [27] = assay: Induction of endoplasmic reticulum stress in human PLC/PRF/5 cells at 1.25 to 2.5 uM after 24 hrs by ER tracker red staining-based fluorescence microscopic method; assay type: functional, cell-based
# MHCC97L [28] = assay: Induction of endoplasmic reticulum stress in human MHCC97L cells at 1.25 to 2.5 uM after 24 hrs by ER tracker red staining-based fluorescence microscopic method; assay type: functional, cell-based
# PLC-PRF-5 [29] = assay: Induction of endoplasmic reticulum stress in human PLC/PRF/5 cells assessed as upregulation of GRP78 gene expression at 1.25 to 2.5 uM after 24 hrs by qRT-PCR method; assay type: functional, cell-based
# PLC-PRF-5 [30] = assay: Induction of endoplasmic reticulum stress in human PLC/PRF/5 cells assessed as upregulation of ATF4 gene expression at 1.25 to 2.5 uM after 24 hrs by qRT-PCR method; assay type: functional, cell-based
# MHCC97L [31] = assay: Induction of endoplasmic reticulum stress in human MHCC97L cells assessed as upregulation of GRP78 gene expression at 1.25 to 2.5 uM after 24 hrs by qRT-PCR method; assay type: functional, cell-based
# MHCC97L [32] = assay: Induction of endoplasmic reticulum stress in human MHCC97L cells assessed as upregulation of ATF4 gene expression at 1.25 to 2.5 uM after 24 hrs by qRT-PCR method; assay type: functional, cell-based
# PLC-PRF-5 [33] = assay: Cytotoxicity against human PLC/PRF/5 cells assessed as decrease in cell viability at 1.25 to 2.5 uM after 24 hrs in presence of endoplasmic reticulum stress reliever TUDCA by MTT assay; assay type: functional, cell-based
# MHCC97L [34] = assay: Cytotoxicity against human MHCC97L cells assessed as decrease in cell viability at 1.25 to 2.5 uM after 24 hrs in presence of endoplasmic reticulum stress reliever TUDCA by MTT assay; assay type: functional, cell-based
# [35] = molecular target: T1, c-Jun N-terminal kinase, JNK (Homo sapiens) (UniProt P45983+P53779+P45984); assay: Induction of JNK phosphorylation in human PLC/PRF/5 cells at 1.25 to 2.5 uM after 24 hrs by immunoblot method; assay type: cell-based
# [36] = molecular target: T1, c-Jun N-terminal kinase, JNK (Homo sapiens); assay: Induction of JNK phosphorylation in human MHCC97L cells at 1.25 to 2.5 uM after 24 hrs by immunoblot method; assay type: cell-based
# [37] = molecular target: T1, c-Jun N-terminal kinase, JNK (Homo sapiens); assay: Induction of JNK activation in human PLC/PRF/5 cells assessed as increase in caspase 3 cleavage at 1.25 to 2.5 uM after 24 hrs by immunoblot method; assay type: cell-based
# [38] = molecular target: T1, c-Jun N-terminal kinase, JNK (Homo sapiens); assay: Induction of JNK activation in human MHCC97L cells assessed as increase in caspase 3 cleavage at 1.25 to 2.5 uM after 24 hrs by immunoblot method; assay type: cell-based
# PLC-PRF-5 [39] = assay: Cytotoxicity against human PLC/PRF/5 cells assessed as decrease in cell viability at 1.25 to 2.5 uM after 24 hrs in presence of JNK inhibitor SP600125 by MTT assay; assay type: functional, cell-based
# MHCC97L [40] = assay: Cytotoxicity against human MHCC97L cells assessed as decrease in cell viability at 1.25 to 2.5 uM after 24 hrs in presence of JNK inhibitor SP600125 by MTT assay; assay type: functional, cell-based
smiles,measurement,setting,value
COc1cc(NC(=O)c2ccco2)c2cc1Oc1ccc(cc1)C[C@H]1c3cc(c(OC)cc3CCN1C)Oc1c(OC)c(OC)cc3c1[C@H](C2)N(C)CC3,IC50,[1],890 nM
same,IC50,PLC-PRF-5 [2],1230 nM
same,Ratio IC50,[3],30.3
same,Ratio IC50,PLC-PRF-5 [4],30.3
same,Ratio IC50,[5],15.8
same,Ratio IC50,PLC-PRF-5 [6],15.8
same,Activity,PLC-PRF-5 [7],67.11%
same,Activity,PLC-PRF-5 [8],21.55%
same,Activity,PLC-PRF-5 [9],17.78%
same,Activity,[10],68.52%
same,Activity,[11],21.59%
same,Activity,[12],18.29%
same,Activity,PLC-PRF-5 [13],16.9%
same,Activity,PLC-PRF-5 [14],42.8%
same,Activity,PLC-PRF-5 [15],3.9%
same,Activity,PLC-PRF-5 [16],36.4%
same,Activity,[17],9.76%
same,Activity,[18],39.6%
same,Activity,[19],4.18%
same,Activity,[20],46.4%
same,Activity,PLC-PRF-5 [21],inactive
same,Activity,MHCC97L [22],inactive
same,Activity,PLC-PRF-5 [23],Active
same,Activity,MHCC97L [24],Active
same,Activity,PLC-PRF-5 [25],Active
same,Activity,MHCC97L [26],Active
same,Activity,PLC-PRF-5 [27],Active
same,Activity,MHCC97L [28],Active
same,Activity,PLC-PRF-5 [29],Active
same,Activity,PLC-PRF-5 [30],Active
same,Activity,MHCC97L [31],Active
same,Activity,MHCC97L [32],Active
same,Activity,PLC-PRF-5 [33],inactive
same,Activity,MHCC97L [34],inactive
same,Activity,[35],Active
same,Activity,[36],Active
same,Activity,[37],Active
same,Activity,[38],Active
same,Activity,PLC-PRF-5 [39],inactive
same,Activity,MHCC97L [40],inactive
